From patent US20110166126A1, “Compositions and Methods for Modulating Endophthalmitis Using Fluoroquinolones” (priority 2007, published 2011)
≈ marks a conversion by molar mass, not a printed value. Entries after “also recorded” stand apart in the source; their conditions may differ.

What was measured:
THP-1 monocytes = experiment: IL-1β and LPS induced IL-8 release from THP-1 monocytes (experiment 1); assay type: cell-based, Human; details: 300, 100, 60, 30 and 10 ng/mL, 18 h
Description: Human monocytic (THP-1) cells were pre-cultured in basal RPMI-1640 medium (commercially available, for example, from Sigma Aldrich) containing 10% dialyzed FBS in a T-75 flask. After 24 h, cells were seeded in 48-well plates in RPMI-1640 medium containing 2% dialyzed FBS at a density of 5.0×10^5 cells/mL with vehicle, IL-1β (300, 100, 60, 30 and 10 ng/mL) and LPS (1 μg/mL) for 18 h (Table 3-1). Each treatment was performed in triplicate. Media were collected and used for determination of cytokine content using a cytokine Luminex kit. The alamarBlue assay was performed to evaluate the cell viability.
(§1) Luminex: Median fluorescence intensity (MFI) was used to obtain the concentration of each cytokines in pg/ml based on the standard curve of each cytokine assayed by Luminex. The linear range of the standard curve for each cytokine was used for determination of cytokine concentration.
Data was expressed as mean±SD. To determine induction of cytokine release into the medium by IL-1β or LPS, statistical analysis was performed using one-way ANOVA-Dunnett's test, and P<0.05 was considered statistically significant.

[1] = system: LPS-stimulated cytokine production in human THP-1 monocytes; details: earlier study [8] (PH07025); better potency compared to moxifloxacin; cited from earlier work
[2] = system: LPS-stimulated cytokine production in human THP-1 monocytes; experiment: Inhibition of LPS-induced cytokine expression in human THP-1 monocytes (multiplex Luminex); assay type: cell-based; parameters: key to Inhibition of LPS-stimulated G-CSF production / Inhibition of LPS-stimulated GM-CSF production / Inhibition of LPS-stimulated IL-12p40 production / Inhibition of LPS-stimulated IL-1α production / Inhibition of LPS-stimulated IL-1β production / Inhibition of LPS-stimulated IL-1ra production / Inhibition of LPS-stimulated IL-6 production / Inhibition of LPS-stimulated IL-8 production / Inhibition of LPS-stimulated IP-10 production / Inhibition of LPS-stimulated MCP-1 production / Inhibition of LPS-stimulated MIP-1α production / Inhibition of LPS-stimulated VEGF production: “X” signifies significant inhibition at a particular concentration
Description: Human THP-1 monocytes (ATCC TIB 202) were purchased from American Type Culture Collection (Manassas, Va.) and maintained in RPMI 1640 medium (Invitrogen, Carlsbad, Calif.) supplemented with 10% fetal bovine serum (“FBS”, Invitrogen, Carlsbad, Calif.), 100 U/mL of penicillin (Invitrogen, Carlsbad, Calif.), and 100 μg/mL of streptomycin (Invitrogen, Carlsbad, Calif.) at 37° C. in a humidified incubator with 5% CO2. THP-1 cells were pre-cultured in RPMI 1640 medium containing 10% dialyzed serum for 24 h. […] Each treatment was performed in triplicate.
Samples were analyzed using multiplex bead technology, which utilizes microspheres as the solid support for immunoassays and allows the analysis of all cytokines from each sample (D. A. Vignali, J. Immunol. Methods, Vol. 243, 243-255 (2000)). Sixteen cytokines were measured according to the manufacturer's instructions. Briefly, 50 μl, of medium samples were incubated with antibody-coated capture beads overnight at 4° C. Washed beads were further incubated with biotin-labeled anti-human cytokine antibodies for 2 hours at room temperature followed by incubation with streptavidin-phycoerythrin for 30 min. Samples were analyzed using Luminex 200™ (Luminex, Austin, Tex.) and Beadview software v1.0 (Upstate Cell Signaling Solutions, Temecula, Calif.). Standard curves of known concentrations of recombinant human cytokines were used to convert fluorescence units (median fluorescence intensity) to cytokine concentration in pg/mL. Only the linear portions of the standard curves were used to quantify cytokine concentrations, and in instances where the fluorescence reading exceeded the linear range of the standard curve, an appropriate dilution was performed to ensure that the concentration was in the linear portion of the curve.
All cytokine concentrations (pg/mL) were expressed as mean±standard deviation. Statistical analysis comparing effects of treatment across groups was performed using a one-way ANOVA with a Dunnett's post-hoc comparison test using either vehicle control or LPS treatment as references. For all assays, p≦0.05 was predetermined as the criterion of statistical significance.

[3] = system: primary human corneal epithelial cells (HCEpiC); details: earlier study (PH07038); comparable or better potency compared to moxifloxacin; cited from earlier work
[4] = system: IL-1β induced IL-8 release in THP-1 monocytes; experiment: Effect on IL-1β-induced cytokine (IL-8) release from human THP-1 monocytes (Luminex); assay type: cell-based; details: for Effect on IL-1β induced IL-8 release / IC50: 18 h; for IC50: Homo sapiens, THP-1, 30 ng/mL IL-1β, four-parameter logistic fit, read-out: IC50 for inhibition of IL-1β induced IL-8 release
Description: Each treatment was performed in triplicate. Media was collected by centrifugation and used for determination of cytokine content using a cytokine Luminex kit. The alamarBlue assay was performed to evaluate cell viability.
After determining the optimal concentration of IL-1β to induce cytokine release (30 ng/mL), cells were pre-cultured in RPMI-1640 medium containing 10% dialyzed FBS in a T-75 flask. […] Each treatment was performed in triplicate. Media were collected and used for determination of cytokine content using a cytokine Luminex kit. AlamarBlue assay was performed to evaluate the cell viability.
as §1
To determine inhibition of IL-1β-induced cytokine release into the medium by dexamethasone or fluoroquinolone compounds as well cell viability, statistical analysis was performed using one-way ANOVA-Dunnett's test on raw data, and P<0.05 was considered statistically significant.
A concentration vs. effect curve was plotted for experiment 2, using averaged data from selected samples. […] Data were fitted to a re-parameterized four-parameter logistic equation using similar methodology as that previously described, and utilizing the statistical analysis software JMP8.

[5] = 1 μg/mL, 10 μg/mL LPS, 18 hours
[6] = 10 μg/mL, 10 μg/mL LPS, 18 hours
[7] = 30 μg/mL, 10 μg/mL LPS, 18 hours
[8] = LPS-induced cytokine production, THP-1 monocytes

In the case of “IL-1β: interleukin-1β, used to induce cytokine release in THP-1 cells”, the “Stimulation of IL-8 release” value (THP-1 monocytes) is reported as “stimulated”.
In the case of `N[C@@H]1CCCCN(c2c(F)cc3c(=O)c(C(=O)O)cn(C4CC4)c3c2Cl)C1` [BOL-303224-A, besifloxacin], the “Effect on lipopolysaccharide (LPS)-stimulated cytokine expression in THP-1 human monocytes” value [1] is given as “significantly inhibited”, the “Inhibition of LPS-stimulated IL-1α production” value ([2]; 0.1 μg/mL, 10 μg/mL LPS, 18 hours) is given as “X” and the “Inhibition of LPS-stimulated G-CSF production” value [2, 5] is given as “X”. The “Inhibition of LPS-stimulated IL-1ra production” value [2, 5] was “X”, the “Inhibition of LPS-stimulated IL-1α production” value [2, 5] was “X” and the “Inhibition of LPS-stimulated IL-6 production” value [2, 5] was “X”. For the same compound, the “Inhibition of LPS-stimulated G-CSF production” value [2, 6] was “X”, the “Inhibition of LPS-stimulated IL-1ra production” value [2, 6] was “X” and the “Inhibition of LPS-stimulated IL-1α production” value [2, 6] was “X”. The “Inhibition of LPS-stimulated IL-6 production” value [2, 6] was “X”, the “Inhibition of LPS-stimulated VEGF production” value [2, 6] was “X” and the “Inhibition of LPS-stimulated G-CSF production” value [2, 7] was “X”. The “Inhibition of LPS-stimulated GM-CSF production” value [2, 7] was “X”, the “Inhibition of LPS-stimulated IL-1ra production” value [2, 7] was “X” and the “Inhibition of LPS-stimulated IL-1α production” value [2, 7] was “X”. For the same compound, the “Inhibition of LPS-stimulated IL-1β production” value [2, 7] was “X”, the “Inhibition of LPS-stimulated IL-6 production” value [2, 7] was “X” and the “Inhibition of LPS-stimulated IL-8 production” value [2, 7] was “X”. The “Inhibition of LPS-stimulated IL-12p40 production” value [2, 7] was “X”, the “Inhibition of LPS-stimulated IP-10 production” value [2, 7] was “X” and the “Inhibition of LPS-stimulated MCP-1 production” value [2, 7] was “X”. The “Inhibition of LPS-stimulated MIP-1α production” value [2, 7] was “X”, the “Inhibition of LPS-stimulated VEGF production” value [2, 7] was “X” and the “Effect on LPS-stimulated production of RANTES” value ([2]; 0.1-30 μg/mL, THP-1 monocytes) was “Neither moxifloxacin nor compound having Formula IV altered”. For the same compound, the “Effect on LPS-stimulated production of fractalkine” value ([2]; 0.1-30 μg/mL, THP-1 monocytes) was “Neither moxifloxacin nor compound having Formula IV altered”, the “Effects on GM-CSF, IL-1β, IL-8, IP-10, MCP-1, and MIP-1α after LPS stimulation (comparison of the two fluoroquinolones)” value ([2]; FIG. 1) was “comparable effects” and the “Relative potency on G-CSF, IL-1α, IL-1ra, IL-6, and VEGF” value ([2]; FIG. 2, LPS-stimulated THP-1 monocytes) was “better potency than moxifloxacin”. For the same compound, the “Concentration at which a significant inhibitory effect was observed for G-CSF” value [2, 8] was 1 µg/mL, the “Concentration at which a significant inhibitory effect was observed for GM-CSF” value [2, 8] was 30 µg/mL and the “Concentration at which a significant inhibitory effect was observed for IL-1α” value [2, 8] was 0.1 µg/mL. The “Concentration at which a significant inhibitory effect was observed for IL-1β” value [2, 8] was 30 µg/mL, the “Concentration at which a significant inhibitory effect was observed for IL-6” value [2, 8] was 1 µg/mL and the “Concentration at which a significant inhibitory effect was observed for IL-8” value [2, 8] was 30 µg/mL. For the same compound, the “Concentration at which a significant inhibitory effect was observed for IL-12p40” value [2, 8] was 30 µg/mL, the “Concentration at which a significant inhibitory effect was observed for IP-10” value [2, 8] was 30 µg/mL and the “Concentration at which a significant inhibitory effect was observed for MCP-1” value [2, 8] was 30 µg/mL. For the same compound, the “Concentration at which a significant inhibitory effect was observed for MIP-1α” value [2, 8] was 30 µg/mL, the “Concentration as low as which a significant inhibitory effect was seen on IL-1α” value ([2]; LPS-stimulated THP-1 monocytes) was 100 ng/mL and the “Concentration at which a significant inhibitory effect was seen on G-CSF” value ([2]; LPS-stimulated THP-1 monocytes) was 1000 ng/mL. The “Concentration at which a significant inhibitory effect was seen on IL-1ra” value ([2]; LPS-stimulated THP-1 monocytes) was 1000 ng/mL, the “Concentration at which a significant inhibitory effect was seen on IL-6” value ([2]; LPS-stimulated THP-1 monocytes) was 1000 ng/mL and the “Effect on IL-1β-stimulated cytokine expression in HCEpiC” value [3] was “significantly inhibited”. For the same compound, the “Effect on IL-1β induced IL-8 release” value ([4]; 10 μg/mL) was “significantly reduced; also recorded: diminished”, the “Effect on IL-1β induced IL-8 release” value ([4]; 30 μg/mL and 10 μg/mL) was “significantly reduced” and the IC50 [4] was 7.5 µg/mL (≈ 19 µM). For the same compound, the “Concentration needed to reduce IL-1β-induced IL-8 release relative to moxifloxacin” value ([4]; THP-1 cells) was “at a lower concentration than moxifloxacin”.
For `COc1c(N2C[C@@H]3CCCN[C@@H]3C2)c(F)cc2c(=O)c(C(=O)O)cn(C3CC3)c12` [Moxifloxacin, moxifloxacin, reference compound], the “Inhibition of LPS-stimulated IL-12p40 production” value [2, 5] was “X”, the “Inhibition of LPS-stimulated IL-1ra production” value [2, 6] was “X” and the “Inhibition of LPS-stimulated IL-6 production” value [2, 6] was “X”. For the same compound, the “Inhibition of LPS-stimulated IL-12p40 production” value [2, 6] was “X”, the “Inhibition of LPS-stimulated IL-1ra production” value [2, 7] was “X” and the “Inhibition of LPS-stimulated IL-1α production” value [2, 7] was “X”. For the same compound, the “Inhibition of LPS-stimulated IL-1β production” value [2, 7] was “X”, the “Inhibition of LPS-stimulated IL-8 production” value [2, 7] was “X” and the “Inhibition of LPS-stimulated IL-12p40 production” value [2, 7] was “X”. For the same compound, the “Inhibition of LPS-stimulated IP-10 production” value [2, 7] was “X”, the “Inhibition of LPS-stimulated MIP-1α production” value [2, 7] was “X” and the “Inhibition of LPS-stimulated VEGF production” value [2, 7] was “X”. The “Concentration at which a significant inhibitory effect was observed for IL-1ra” value [2, 8] was 10 µg/mL, the “Concentration at which a significant inhibitory effect was observed for IL-1α” value [2, 8] was 30 µg/mL and the “Concentration at which a significant inhibitory effect was observed for IL-1β” value [2, 8] was 30 µg/mL. For the same compound, the “Concentration at which a significant inhibitory effect was observed for IL-6” value [2, 8] was 10 µg/mL, the “Concentration at which a significant inhibitory effect was observed for IL-8” value [2, 8] was 30 µg/mL and the “Concentration at which a significant inhibitory effect was observed for IL-12p40” value [2, 8] was 1 µg/mL. For the same compound, the “Concentration at which a significant inhibitory effect was observed for IP-10” value [2, 8] was 30 µg/mL, the “Concentration at which a significant inhibitory effect was observed for MIP-1α” value [2, 8] was 30 µg/mL and the IC50 [4] was 10.9 ± 4.8 µg/mL (≈ 27.2 µM).
